Experimental data: the supplement of paper PMC10307832

Columns and labels:
Assay in all cases: relative viability (nuclei count vs DMSO), 5 days (fraction); higher = more cells survive
BAY61-3606 + Foretinib = compound: COC1=C(C=C(C=C1)C2=CC3=NC=CN3C(=N2)NC4=C(C=CC=N4)C(=O)N)OC [BAY61-3606] + COc1cc2c(Oc3ccc(NC(=O)C4(C(=O)Nc5ccc(F)cc5)CC4)cc3F)ccnc2cc1OCCCN1CCOCC1 [Foretinib] (partner 0.25 µM)
Summary of the method: (§1)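 Dosing by pin tool came one day after lung cancer cell lines were seeded in 1536-well plates, using either one drug or a fixed anchor-drug dose plus five library-drug doses (not always all listed) in √10 steps. After 5 days, nuclei were counted on 4× images. Relative viability is treated-well nuclei count divided by vehicle-well nuclei count, and values are medians of duplicate plates.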

BAY61-3606 + Lapatinib = compound: COC1=C(C=C(C=C1)C2=CC3=NC=CN3C(=N2)NC4=C(C=CC=N4)C(=O)N)OC [BAY61-3606] + CS(=O)(=O)CCNCc1ccc(-c2ccc3ncnc(Nc4ccc(OCc5cccc(F)c5)c(Cl)c4)c3c2)o1 [Lapatinib] (partner 2 µM)
Summary of the method: as §1

Doxorubicin + Dasatinib = compound: COc1cccc2c1C(=O)c1c(O)c3c(c(O)c1C2=O)C[C@@](O)(C(=O)CO)C[C@@H]3O[C@H]1C[C@H](N)[C@H](O)[C@H](C)O1 [Doxorubicin] + Cc1nc(Nc2ncc(C(=O)Nc3c(C)cccc3Cl)s2)cc(N2CCN(CCO)CC2)n1 [Dasatinib] (partner 0.075 µM)
Summary of the method: as §1

Doxorubicin + Olaparib = compound: COc1cccc2c1C(=O)c1c(O)c3c(c(O)c1C2=O)C[C@@](O)(C(=O)CO)C[C@@H]3O[C@H]1C[C@H](N)[C@H](O)[C@H](C)O1 [Doxorubicin] + O=C(c1cc(Cc2n[nH]c(=O)c3ccccc23)ccc1F)N1CCN(C(=O)C2CC2)CC1 [Olaparib] (partner 8 µM)
Summary of the method: as §1

UMC-11
relative viability (BAY61-3606 + Foretinib; first compound 0.02 µM): 1.23 | relative viability (BAY61-3606 + Foretinib; first compound 0.06325 µM): 1.12 | relative viability (BAY61-3606 + Foretinib; first compound 0.2 µM): 1.05 | relative viability (BAY61-3606 + Foretinib; first compound 0.6325 µM): 1.15 | relative viability (BAY61-3606 + Foretinib; first compound 2 µM): 1.02 | relative viability (BAY61-3606 + Lapatinib; first compound 0.02 µM): 1.16 | relative viability (BAY61-3606 + Lapatinib; first compound 0.06325 µM): 0.944 | relative viability (BAY61-3606 + Lapatinib; first compound 0.2 µM): 0.832 | relative viability (BAY61-3606 + Lapatinib; first compound 0.6325 µM): 1.1 | relative viability (BAY61-3606 + Lapatinib; first compound 2 µM): 0.958 | relative viability (Doxorubicin + Dasatinib; first compound 0.001 µM): 0.43 | relative viability (Doxorubicin + Dasatinib; first compound 0.003162 µM): 0.47 | relative viability (Doxorubicin + Dasatinib; first compound 0.01 µM): 0.44 | relative viability (Doxorubicin + Dasatinib; first compound 0.03162 µM): 0.446 | relative viability (Doxorubicin + Dasatinib; first compound 0.1 µM): 0.282 | relative viability (Doxorubicin + Olaparib; first compound 0.001 µM): 0.38 | relative viability (Doxorubicin + Olaparib; first compound 0.003162 µM): 0.401 | relative viability (Doxorubicin + Olaparib; first compound 0.01 µM): 0.322 | relative viability (Doxorubicin + Olaparib; first compound 0.03162 µM): 0.302 | relative viability (Doxorubicin + Olaparib; first compound 0.1 µM): 0.275
